Test results published in patent US9351488B2, “Peracetic acid composition” (PEROXYCHEM LLC, priority 2006, dated 2016).

Experiment: Kill rate of peracetic acid 400-660 ppm with and without adjuvant
Format: cell-based
Conditions: peracetic acid 400-660 ppm in aqueous solution
From the text: Use of oxidative lysing agents such as peracetic acid in aqueous solution at concentration(s) ranging from 400-660 ppm provided only moderate kill rates with log reductions of 4-5.5. However, use of peracetic acid at the same concentrations with the addition of the adjuvant herein described produced improved kill rates up to complete destruction of the species with log reductions of 6 or recovery rates of 0.

CC(=O)OO [peracetic acid]
log reductions: 4-5.5 log
